# Results: US20020026053A1, “Novel 3-(substituted) -2- indolinones compounds and use thereof as inhibitors of protein kinase activity” (priority 1997, published 2002)
# Test system: PDGF-R
# Assay: PDGF-R Assay (cellular ELISA, U1242 cells)
# Format: cell-based
# Design: concentration or dose not given beside the values
# Procedure, shortened: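 U1242 cells seeded in 0.5% serum, serum-starved, then exposed to compound for 2 hr at 37°C before 5–10 min ligand stimulation and lysis in HNTG. Lysate captured on receptor-antibody-coated plates; phosphotyrosine detected with polyclonal anti-pTyr, goat anti-rabbit IgG and ABTS/H2O2, A410 (ref 630 nm), versus untreated cells.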
row,Compound,PDGF Kinase % Inhibition (P.119) [%]
1,CCOc1cccc(C=C2C(=O)Nc3c(Br)cc(Br)cc32)c1O [10734/A02],−3.8
2,O=C1Nc2c(Br)cc(Br)cc2C1=Cc1cc(Cl)cc(Cl)c1O [10734/A03],22.3
3,O=C1Nc2c(Br)cc(Br)cc2C1=Cc1cc(Cl)ccc1O [10734/A04],11.7
4,CCN(CC)c1ccc(C=C2C(=O)Nc3c(Br)cc(Br)cc32)c(O)c1 [10734/A05],2.9
5,O=C1Nc2c(Br)cc(Br)cc2C1=Cc1ccc([N+](=O)[O-])cc1 [10734/A06],−9.9
6,O=C1Nc2c(Br)cc(Br)cc2C1=Cc1cc(Br)cc(Br)c1O [10734/A07],21.9
7,O=C1Nc2c(Br)cc(Br)cc2C1=Cc1cccc(F)c1O [10734/A08],9.1
8,O=C1Nc2c(Br)cc(Br)cc2C1=Cc1ccc(O)c(Br)c1 [10734/A09],−9.5
9,CC(C)(C)c1ccc(C=C2C(=O)Nc3c(Br)cc(Br)cc32)cc1 [10734/A10],26.3
10,O=C1Nc2c(Br)cc(Br)cc2C1=Cc1ccc(Br)s1 [10734/A11],5.5
11,CCOc1cccc(C=C2C(=O)Nc3ccc(I)cc32)c1O [10734/B02],−2.9
12,O=C1Nc2ccc(I)cc2C1=Cc1cc(Cl)cc(Cl)c1O [10734/B03],13.0
13,O=C1Nc2ccc(I)cc2C1=Cc1cc(Cl)ccc1O [10734/B04],14.4
14,CCN(CC)c1ccc(C=C2C(=O)Nc3ccc(I)cc32)c(O)c1 [10734/B05],56.3
15,O=C1Nc2ccc(I)cc2C1=Cc1ccc([N+](=O)[O-])cc1 [10734/B06],0.2
16,O=C1Nc2ccc(I)cc2C1=Cc1cc(Br)cc(Br)c1O [10734/B07],18.8
17,O=C1Nc2ccc(I)cc2C1=Cc1cccc(F)c1O [10734/B08],−2.4
18,O=C1Nc2ccc(I)cc2C1=Cc1ccc(O)c(Br)c1 [10734/B09],12.6
19,CC(C)(C)c1ccc(C=C2C(=O)Nc3ccc(I)cc32)cc1 [10734/B10],7.7
20,O=C1Nc2ccc(I)cc2C1=Cc1ccc(Br)s1 [10734/B11],−5.5
21,CCOc1cccc(C=C2C(=O)Nc3ccc(Br)c(C)c32)c1O [10734/C02],36.0
22,Cc1c(Br)ccc2c1C(=Cc1cc(Cl)cc(Cl)c1O)C(=O)N2 [10734/C03],24.5
23,Cc1c(Br)ccc2c1C(=Cc1cc(Cl)ccc1O)C(=O)N2 [10734/C04],24.5
24,CCN(CC)c1ccc(C=C2C(=O)Nc3ccc(Br)c(C)c32)c(O)c1 [10734/C05],3.8
25,Cc1c(Br)ccc2c1C(=Cc1ccc([N+](=O)[O-])cc1)C(=O)N2 [10734/C06],−0.2

row,Compound,PDGF Kinase % Inhibition (P.119) [%]
1,Cc1c(Br)ccc2c1C(=Cc1cc(Br)cc(Br)c1O)C(=O)N2 [10734/C07],32.0
2,Cc1c(Br)ccc2c1C(=Cc1cccc(F)c1O)C(=O)N2 [10734/C08],5.5
3,Cc1c(Br)ccc2c1C(=Cc1ccc(O)c(Br)c1)C(=O)N2 [10734/C09],11.3
4,Cc1c(Br)ccc2c1C(=Cc1ccc(C(C)(C)C)cc1)C(=O)N2 [10734/C10],17.4
5,Cc1c(Br)ccc2c1C(=Cc1ccc(Br)s1)C(=O)N2 [10734/C11],9.1
6,CCOc1cccc(C=C2C(=O)Nc3ccc(S(=O)(=O)NC)cc32)c1O [10734/D02],6.4
7,CNS(=O)(=O)c1ccc2c(c1)C(=Cc1cc(Cl)cc(Cl)c1O)C(=O)N2 [10734/D03],24.1
8,CNS(=O)(=O)c1ccc2c(c1)C(=Cc1cc(Cl)ccc1O)C(=O)N2 [10734/D04],13.5
9,CCN(CC)c1ccc(C=C2C(=O)Nc3ccc(S(=O)(=O)NC)cc32)c(O)c1 [10734/D05],8.2
10,CNS(=O)(=O)c1ccc2c(c1)C(=Cc1ccc([N+](=O)[O-])cc1)C(=O)N2 [10734/D06],−9.1
11,CNS(=O)(=O)c1ccc2c(c1)C(=Cc1cc(Br)cc(Br)c1O)C(=O)N2 [10734/D07],28.1
12,CNS(=O)(=O)c1ccc2c(c1)C(=Cc1cccc(F)c1O)C(=O)N2 [10734/D08],2.0
13,CNS(=O)(=O)c1ccc2c(c1)C(=Cc1ccc(O)c(Br)c1)C(=O)N2 [10734/D09],42.2
14,CNS(=O)(=O)c1ccc2c(c1)C(=Cc1ccc(C(C)(C)C)cc1)C(=O)N2 [10734/D10],9.9
15,CNS(=O)(=O)c1ccc2c(c1)C(=Cc1ccc(Br)s1)C(=O)N2 [10734/D11],17.0
16,CCOc1cccc(C=C2C(=O)Nc3ccc(S(=O)(=O)Nc4ccc(C(F)(F)F)cc4)cc32)c1O [10734/E02],50.1
17,O=C1Nc2ccc(S(=O)(=O)Nc3ccc(C(F)(F)F)cc3)cc2C1=Cc1cc(Cl)cc(Cl)c1O [10734/E03],27.2
18,O=C1Nc2ccc(S(=O)(=O)Nc3ccc(C(F)(F)F)cc3)cc2C1=Cc1cc(Cl)ccc1O [10734/E04],26.7
19,CCN(CC)c1ccc(C=C2C(=O)Nc3ccc(S(=O)(=O)Nc4ccc(C(F)(F)F)cc4)cc32)c(O)c1 [10734/E05],17.9
20,O=C1Nc2ccc(S(=O)(=O)Nc3ccc(C(F)(F)F)cc3)cc2C1=Cc1ccc([N+](=O)[O-])cc1 [10734/E06],13.5
21,O=C1Nc2ccc(S(=O)(=O)Nc3ccc(C(F)(F)F)cc3)cc2C1=Cc1cc(Br)cc(Br)c1O [10734/E07],8.2
22,O=C1Nc2ccc(S(=O)(=O)Nc3ccc(C(F)(F)F)cc3)cc2C1=Cc1cccc(F)c1O [10734/E08],13.0
23,O=C1Nc2ccc(S(=O)(=O)Nc3ccc(C(F)(F)F)cc3)cc2C1=Cc1ccc(O)c(Br)c1 [10734/E09],1.1
24,CC(C)(C)c1ccc(C=C2C(=O)Nc3ccc(S(=O)(=O)Nc4ccc(C(F)(F)F)cc4)cc32)cc1 [10734/E10],29.8
25,O=C1Nc2ccc(S(=O)(=O)Nc3ccc(C(F)(F)F)cc3)cc2C1=Cc1ccc(Br)s1 [10734/E11],16.1

row,Compound,PDGF Kinase % Inhibition (P.119) [%]
1,CCOc1cccc(C=C2C(=O)Nc3ccc(S(=O)(=O)N4CCOCC4)cc32)c1O [10734/F02],10.4
2,O=C1Nc2ccc(S(=O)(=O)N3CCOCC3)cc2C1=Cc1cc(Cl)cc(Cl)c1O [10734/F03],−24.1
3,O=C1Nc2ccc(S(=O)(=O)N3CCOCC3)cc2C1=Cc1cc(Cl)ccc1O [10734/F04],25.0
4,CCN(CC)c1ccc(C=C2C(=O)Nc3ccc(S(=O)(=O)N4CCOCC4)cc32)c(O)c1 [10734/F05],−1.1
5,O=C1Nc2ccc(S(=O)(=O)N3CCOCC3)cc2C1=Cc1ccc([N+](=O)[O-])cc1 [10734/F06],−21.4
6,O=C1Nc2ccc(S(=O)(=O)N3CCOCC3)cc2C1=Cc1cc(Br)cc(Br)c1O [10734/F07],−5.1
7,O=C1Nc2ccc(S(=O)(=O)N3CCOCC3)cc2C1=Cc1cccc(F)c1O [10734/F08],−6.0
8,O=C1Nc2ccc(S(=O)(=O)N3CCOCC3)cc2C1=Cc1ccc(O)c(Br)c1 [10734/F09],−17.4
9,CC(C)(C)c1ccc(C=C2C(=O)Nc3ccc(S(=O)(=O)N4CCOCC4)cc32)cc1 [10734/F10],25.8
10,O=C1Nc2ccc(S(=O)(=O)N3CCOCC3)cc2C1=Cc1ccc(Br)s1 [10734/F11],16.1
11,CCOc1cccc(C=C2C(=O)Nc3ccc(CCCl)cc32)c1O [10734/G02],14.8
12,O=C1Nc2ccc(CCCl)cc2C1=Cc1cc(Cl)cc(Cl)c1O [10734/G03],−3.8
13,O=C1Nc2ccc(CCCl)cc2C1=Cc1cc(Cl)ccc1O [10734/G04],16.1
14,CCN(CC)c1ccc(C=C2C(=O)Nc3ccc(CCCl)cc32)c(O)c1 [10734/G05],2.9
15,O=C1Nc2ccc(CCCl)cc2C1=Cc1ccc([N+](=O)[O-])cc1 [10734/G06],−18.8
16,O=C1Nc2ccc(CCCl)cc2C1=Cc1cc(Br)cc(Br)c1O [10734/G07],−25.0
17,O=C1Nc2ccc(CCCl)cc2C1=Cc1cccc(F)c1O [10734/G08],0.2
18,O=C1Nc2ccc(CCCl)cc2C1=Cc1ccc(O)c(Br)c1 [10734/G09],−7.7
19,CC(C)(C)c1ccc(C=C2C(=O)Nc3ccc(CCCl)cc32)cc1 [10734/G10],9.9
20,O=C1Nc2ccc(CCCl)cc2C1=Cc1ccc(Br)s1 [10734/G11],−25.4
21,CCOc1cccc(C=C2C(=O)Nc3c(Br)cc(Br)c(C)c32)c1O [10734/H02],−10.8
22,Cc1c(Br)cc(Br)c2c1C(=Cc1cc(Cl)cc(Cl)c1O)C(=O)N2 [10734/H03],8.6
23,Cc1c(Br)cc(Br)c2c1C(=Cc1cc(Cl)ccc1O)C(=O)N2 [10734/H04],6.0
